Measurements taken from patent publication US20090137565A1, “Method for treatment of movement disorders” (The Trustees of Columbia University in the City of New York, priority 2004, published 2009).

How the values were obtained:
[1] = tested on: severe posthypoxic myoclonus
Excerpt: After obtaining verbal consent from the patient and their spouse, they were given approximately six ounces of wine to drink (alcohol content 14% by volume). […] They were videotaped before and after the trial with alcohol.

[2] = tested on: severe posthypoxic myoclonus; test: Earlier trials of anti-myoclonic medications in the Example 1 patient (case history); conditions: for reason for intolerance / adverse effect: human, in vivo
Excerpt: The patient was referred to the Columbia University Medical Center Movement Disorder Center for evaluation of severe posthypoxic myoclonus at the age of 37. […] Back-averaged EEGs and somatosensory evoked potentials were not available.

[3] = approximately six ounces of wine
[4] = Example 1 patient, before the trial

| SMILES | outcome of trials of anti-myoclonic medications [2, 4] | reason for intolerance / adverse effect [2] | further results |
| --- | --- | --- | --- |
| CCO [alcohol] | – | – | duration of anti-myoclonic effect [1, 3]: resolved in several hours; effect on myoclonus [1, 3]: dramatic improvement in myoclonus; time to improvement in myoclonus ([1]; approximately six ounces of wine (alcohol content 14% by volume)): ≤ 30 min |
| O=C1CN=C(c2ccccc2Cl)c2cc([N+](=O)[O-])ccc2N1 [clonazepam] | only minimally successful | – | dose-limiting side effect [2, 4]: dose-limiting sedation; effect on severity of myoclonus [2, 4]: partially improved |
| CC[C@@H](C(N)=O)N1CCCC1=O [levetiracetam] | only minimally successful | – | – |
| CC1(C)O[C@@H]2[C@@H](CO[C@@]3(COS(N)(=O)=O)OC(C)(C)O[C@@H]23)O1 [topiramate] | only minimally successful | – | – |
| CCCC(CCC)C(=O)O [valproic acid] | only minimally successful | drop in platelet count | – |
| NS(=O)(=O)Cc1noc2ccccc12 [zonisamide] | only minimally successful | anorexia | – |
